Measured values: US20150284349A1 (priority 2013, published 2015)
Like-named read-outs stand apart in the source and are kept apart here.

Tests used:
[1] = tested on: multiple CYP; assay: Standard CYP inhibition assays; assay type: in vitro ADME; conditions: each assay
Experimental: (§1) The Log D7.4 value of compound 1 was measured to be 2.69 under standard experimental conditions. Inhibition of multiple CYP was measured for compound 1 using standard CYP inhibition assays.

[2] = Oral pharmacokinetic study, bioavailability; assay type: in vivo; conditions: rat, plasma, 5 mg/kg b.w., Male SD rats
Experimental: Fasted animals (Male and Female BALB/c mice or SD rats, ten groups, three animals per group) were administered with compound 1 in vehicle (5% (v/v) N,N-Dimethylacetamide, 50% (v/v) of 60% (w/v) Sulfobutyl ether beta-cyclodextrin (SBEβCD) and 45% (v/v) Sterile water for injection) by oral route with a dose of 2.5, 5, and 10 mg/kg body weight at dose volume of 10 mL/kg b.w. Under mild isoflurane anesthesia, blood specimen were collected into pre-labeled tubes containing anticoagulant (K2EDTA—2 mg/mL blood) at various time points (0.08, 0.16, 0.25, 0.50, 1.00, 2.00, 4.00, 6.00, 8.00 and 24.00 hours). Collected blood specimens were centrifuged at 4000 rpm, 4° C. for 10 minutes and plasma was separated and stored at −80° C. until analysis.

[3] = Maximum tolerated dose study; assay type: in vivo, male BALB/c mice; conditions: for MTD at 14 days: male, BALB/c, mouse, in vivo
Experimental: Three groups of three animals (male BALB/c mice) were administered increasing doses of compound 1 every other day for 14 days and the animals checked daily for the signs of moribundity, mortality, vocalization, and gross weight or body shape abnormalities. Dose escalation of compound 1 was performed according to the “modified Fibonacci search” scheme, compound 1 (x=2 mg/kg) was dosed at 4, 6.6, 10, 14, 24 and 32 mg/kg on Days 0, 2, 4, 6, 8 and 10. […] An average MTD of 21.1 mg/kg for the three groups combined was determined from this study.

[4] = Human microsome stability; assay type: in vitro ADME
[5] = tested on: 786-O xenografts (renal cell carcinoma); assay: Mouse xenograft study, 786-O renal cell carcinoma; assay type: in vivo, mice
Experimental: Mouse xenograft study was conducted to evaluate the primary endpoint of efficacy (reduction in tumor volume of >50% as compared to control) and the secondary endpoint of survival (Kaplan-Meier). Tumors were established in the flank region and grown to about 100 mm^3 The mice were treated with compound 1 in the 786-O xenografts (renal cell carcinoma) at 1 mg/kg given IV. The compound was injected every fourth day for 45 days (a total of 11 injections, see following table).
All tumors were imaged at the end of the study and harvested for histopathology studies. Percentages of tumor volumes in control and compound 1—treated mice measured throughout the entire duration of the experiments. Error bars are ±SEM of each experimental group.
After the last treatment with compound 1, mice were injected with the tumor-targeting near-infrared (NIR) contrast agent IR-783, anesthetized and imaged on a Xenogen IVIS 200 small animal imager. The fluorescence output was processed with Living Image software with one representative sample for each group presented above.

[6] = Intravenous pharmacokinetic study, observation for adverse symptoms; assay type: in vivo, male and female BALB/c mice; conditions: intravenous 1.0 mg/kg b.w., observed up to 24 hours post dose
Experimental: Non-fasted animals (Male and Female BALB/c mice or SD rats, ten groups, three animals per group) were administered with compound 1 in vehicle (5% (v/v) N,N-Dimethylacetamide, 50% (v/v) of 60% (w/v) Hydroxypropyl beta-Cyclodextrin, 45% (v/v) Sterile water for injection) by intravenous route with various doses 0.5, 1, 2.5, and 5 mg/kg body weight at dose volume of 10 mL/kg body weight. Under mild isoflurane anesthesia, blood specimens were collected into pre-labeled tubes containing anticoagulant (K2EDTA—2 mg/mL blood) at various time points (0.08, 0.16, 0.25, 0.50, 1.00, 2.00, 4.00, 6.00, 8.00 and 24.00 hours). Collected blood specimens were centrifuged at 4000 rpm, 4° C. for 10 minutes and plasma was separated and stored at −80° C. until analysis.

[7] = Log D7.4 measurement; assay type: physicochemical; conditions: pH 7.4; standard experimental conditions
Experimental: as §1

[8] = Plasma protein binding; assay type: in vitro ADME
[9] = tested on: HIF1a; conditions: cited from earlier work
[10] = molecular target: HIF/p300 complex (Homo sapiens, UniProt Q09472); conditions: cited from earlier work
Chain of HIF/p300 complex (Q09472 whole entry, one chain of several): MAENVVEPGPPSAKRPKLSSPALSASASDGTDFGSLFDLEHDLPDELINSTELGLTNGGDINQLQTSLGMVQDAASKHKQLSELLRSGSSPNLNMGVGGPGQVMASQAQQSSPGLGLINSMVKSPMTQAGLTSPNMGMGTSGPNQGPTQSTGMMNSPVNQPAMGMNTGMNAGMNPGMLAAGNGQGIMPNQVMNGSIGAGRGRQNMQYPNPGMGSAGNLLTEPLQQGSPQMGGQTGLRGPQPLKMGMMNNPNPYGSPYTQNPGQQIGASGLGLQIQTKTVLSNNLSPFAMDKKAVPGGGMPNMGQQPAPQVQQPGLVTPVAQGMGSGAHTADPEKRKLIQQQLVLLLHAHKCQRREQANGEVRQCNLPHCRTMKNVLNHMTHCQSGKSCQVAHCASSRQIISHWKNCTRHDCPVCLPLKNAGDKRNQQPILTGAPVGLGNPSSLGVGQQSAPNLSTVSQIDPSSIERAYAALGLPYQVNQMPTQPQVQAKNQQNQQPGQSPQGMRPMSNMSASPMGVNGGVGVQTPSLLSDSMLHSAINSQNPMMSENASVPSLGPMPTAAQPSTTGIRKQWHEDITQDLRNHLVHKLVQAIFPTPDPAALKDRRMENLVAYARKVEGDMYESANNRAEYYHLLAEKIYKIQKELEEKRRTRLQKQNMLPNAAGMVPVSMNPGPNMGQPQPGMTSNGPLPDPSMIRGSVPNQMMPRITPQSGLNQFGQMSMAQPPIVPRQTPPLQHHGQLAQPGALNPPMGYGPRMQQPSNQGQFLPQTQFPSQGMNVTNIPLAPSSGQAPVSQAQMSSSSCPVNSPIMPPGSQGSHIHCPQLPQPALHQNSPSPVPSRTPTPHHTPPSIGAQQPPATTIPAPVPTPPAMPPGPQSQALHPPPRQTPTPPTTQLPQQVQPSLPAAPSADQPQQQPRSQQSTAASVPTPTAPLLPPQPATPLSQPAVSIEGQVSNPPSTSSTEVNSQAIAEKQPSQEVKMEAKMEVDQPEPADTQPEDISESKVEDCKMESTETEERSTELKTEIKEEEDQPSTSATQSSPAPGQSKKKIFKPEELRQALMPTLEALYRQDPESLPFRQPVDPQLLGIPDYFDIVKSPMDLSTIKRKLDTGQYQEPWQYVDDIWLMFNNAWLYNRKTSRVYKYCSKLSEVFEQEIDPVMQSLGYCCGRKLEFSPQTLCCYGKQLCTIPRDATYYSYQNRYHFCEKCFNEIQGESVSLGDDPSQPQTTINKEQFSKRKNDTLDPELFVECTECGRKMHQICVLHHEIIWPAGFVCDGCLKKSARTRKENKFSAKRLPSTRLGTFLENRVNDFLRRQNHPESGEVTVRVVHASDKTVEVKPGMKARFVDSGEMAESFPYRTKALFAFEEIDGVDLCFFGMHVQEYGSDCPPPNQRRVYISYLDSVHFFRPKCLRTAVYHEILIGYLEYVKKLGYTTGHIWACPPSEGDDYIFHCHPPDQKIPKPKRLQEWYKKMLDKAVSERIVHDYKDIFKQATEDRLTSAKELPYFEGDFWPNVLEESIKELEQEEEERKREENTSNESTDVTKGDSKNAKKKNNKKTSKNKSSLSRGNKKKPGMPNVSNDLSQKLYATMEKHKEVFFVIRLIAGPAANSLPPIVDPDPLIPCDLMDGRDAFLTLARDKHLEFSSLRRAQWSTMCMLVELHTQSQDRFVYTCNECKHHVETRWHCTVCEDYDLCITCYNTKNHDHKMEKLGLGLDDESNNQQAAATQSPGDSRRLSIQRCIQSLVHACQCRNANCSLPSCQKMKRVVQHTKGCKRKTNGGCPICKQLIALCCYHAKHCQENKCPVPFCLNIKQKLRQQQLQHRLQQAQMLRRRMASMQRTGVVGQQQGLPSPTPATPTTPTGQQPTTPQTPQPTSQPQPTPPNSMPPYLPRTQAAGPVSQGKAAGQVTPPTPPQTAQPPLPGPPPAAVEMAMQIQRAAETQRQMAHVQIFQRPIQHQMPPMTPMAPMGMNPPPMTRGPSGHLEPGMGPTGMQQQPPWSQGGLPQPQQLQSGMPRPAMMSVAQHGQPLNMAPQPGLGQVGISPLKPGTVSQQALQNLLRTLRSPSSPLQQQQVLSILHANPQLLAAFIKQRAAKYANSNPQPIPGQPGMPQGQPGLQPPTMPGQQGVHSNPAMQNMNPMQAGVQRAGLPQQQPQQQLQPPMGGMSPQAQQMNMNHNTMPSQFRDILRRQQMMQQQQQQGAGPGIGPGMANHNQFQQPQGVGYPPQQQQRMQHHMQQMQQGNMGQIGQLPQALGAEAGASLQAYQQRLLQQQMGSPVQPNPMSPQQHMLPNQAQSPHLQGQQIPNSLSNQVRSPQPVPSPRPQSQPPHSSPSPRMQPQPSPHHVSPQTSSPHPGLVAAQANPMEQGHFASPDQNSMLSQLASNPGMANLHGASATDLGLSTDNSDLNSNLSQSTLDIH

CN1C(=O)[C@]2(Cc3ccc(CCc4ccc(C[C@@]56SS[C@@](CO)(C(=O)N5C)N(C)C6=O)cc4)cc3)SS[C@@]1(CO)C(=O)N2C (racemic) [Compound 1, (±)-4,4′-((ethane-1,2-diylbis(4,1-phenylene))bis(methylene))bis(1-(hydroxymethyl)-5,7-dimethyl-2,3-dithia-5,7-diazabicyclo[2.2.2]octane-6,8-dione)]
IC50 [1]: > 5 µM | bioavailability [2]: 28% | signs of toxicity ([3]; 14 mg/kg dose, male BALB/c mice): no signs of toxicity | signs of toxicity ([3]; 24 mg/kg dose, male BALB/c mice): one animal exhibited signs of toxicity | animals affected per group of three (quantity not given) ([3]; Dose 4 mg/kg, Group 1): 0 | animals affected per group of three (quantity not given) ([3]; Dose 4 mg/kg, Group 2): 0 | animals affected per group of three (quantity not given) ([3]; Dose 4 mg/kg, Group 3): 0 | animals affected per group of three (quantity not given) ([3]; Dose 6.6 mg/kg, Group 1): 0 | animals affected per group of three (quantity not given) ([3]; Dose 6.6 mg/kg, Group 2): 0 | animals affected per group of three (quantity not given) ([3]; Dose 6.6 mg/kg, Group 3): 0 | animals affected per group of three (quantity not given) ([3]; Dose 10 mg/kg, Group 1): 0 | animals affected per group of three (quantity not given) ([3]; Dose 10 mg/kg, Group 2): 0 | animals affected per group of three (quantity not given) ([3]; Dose 10 mg/kg, Group 3): 0 | animals affected per group of three (quantity not given) ([3]; Dose 14 mg/kg, Group 1): 0 | animals affected per group of three (quantity not given) ([3]; Dose 14 mg/kg, Group 2): 0 | animals affected per group of three (quantity not given) ([3]; Dose 14 mg/kg, Group 3): 0 | animals affected per group of three (quantity not given) ([3]; Dose 24 mg/kg, Group 1): 0 | animals affected per group of three (quantity not given) ([3]; Dose 24 mg/kg, Group 2): 1 | animals affected per group of three (quantity not given) ([3]; Dose 24 mg/kg, Group 3): 1 | animals affected per group of three (quantity not given) ([3]; Dose 32 mg/kg, Group 1): 3 | animals affected per group of three (quantity not given) ([3]; Dose 32 mg/kg, Group 2): 3 | animals affected per group of three (quantity not given) ([3]; Dose 32 mg/kg, Group 3): 3 | MTD at 14 days ([3]; Group 1, read-out: MTD): 25.3 mg/kg | MTD at 14 days ([3]; Group 2, read-out: MTD): 19 mg/kg | MTD at 14 days ([3]; Group 3, read-out: MTD): 19 mg/kg | MTD at 14 days ([3]; three groups combined, male BALB/c mice, read-out: Average MTD): 21.1 mg/kg | in vitro clearance, human microsome stability studies [4]: favorable in vitro clearance | human microsome stability T1/2 ([4]; in the presence of co-factor): short | median tumor volume increase ([5]; 786-O xenografts in mice, 46 day experiment, control group 288%, P<0.01): 113% | intensity of the NIR signal from tumor-accumulated contrast agent IR-783 compared to control group ([5]; after last treatment, Xenogen IVIS 200 imaging): significantly lower intensity | weight loss ([5]; during the 45 day experiment): 5-8% | adverse symptoms after dosing [6]: found to be normal | logD [7]: 2.69 | plasma protein binding [8]: highly protein bound

COc1cc2c(cc1O)CC[C@@H]1[C@@H]2CC[C@]2(C)[C@@H](O)CC[C@@H]12 [2-methoxyestradiol]
HIF1a levels in vitro [9]: reduce HIFIa levels

CN1C(=O)[C@]2(Cc3cn([C@]45C[C@@]67SS[C@@](CO)(C(=O)N6[C@H]4Nc4ccccc45)N(C)C7=O)c4ccccc34)SS[C@@]1(CO)C(=O)N2C [chetomin]
inhibition of the HIF/p300 complex [10]: potent and specific inhibition
